Data reported in PMC8953583, “The Longitudinal Dividing Bacterium Candidatus Thiosymbion Oneisti Has a Natural Temperature-Sensitive FtsZ Protein with Low GTPase Activity” (International Journal of Molecular Sciences, 2022).

T1: FtsZ^EC (Escherichia coli, UniProt P0A9A6)
T1 construct: purified FtsZ; purification not described in main text
T1 sequence (P0A9A6 1-383): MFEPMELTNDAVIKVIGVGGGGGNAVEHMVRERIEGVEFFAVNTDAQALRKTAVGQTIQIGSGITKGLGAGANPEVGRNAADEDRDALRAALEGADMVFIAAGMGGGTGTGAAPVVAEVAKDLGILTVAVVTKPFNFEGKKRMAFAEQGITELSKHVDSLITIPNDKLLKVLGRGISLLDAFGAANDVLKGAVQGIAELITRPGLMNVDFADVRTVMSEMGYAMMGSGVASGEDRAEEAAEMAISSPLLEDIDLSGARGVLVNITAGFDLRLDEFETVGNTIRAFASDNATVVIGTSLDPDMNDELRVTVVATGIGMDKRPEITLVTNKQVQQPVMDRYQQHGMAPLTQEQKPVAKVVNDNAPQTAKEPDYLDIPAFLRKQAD

T2: FtsZ^TO (Candidatus Thiosymbion oneisti, UniProt I3VI34, I207M)
T2 construct: untagged, expressed from pJW17 (pET11b) in E. coli BL21(DE3) pLysS; anion-exchange purified
T2 sequence (I3VI34 1-397 I207M): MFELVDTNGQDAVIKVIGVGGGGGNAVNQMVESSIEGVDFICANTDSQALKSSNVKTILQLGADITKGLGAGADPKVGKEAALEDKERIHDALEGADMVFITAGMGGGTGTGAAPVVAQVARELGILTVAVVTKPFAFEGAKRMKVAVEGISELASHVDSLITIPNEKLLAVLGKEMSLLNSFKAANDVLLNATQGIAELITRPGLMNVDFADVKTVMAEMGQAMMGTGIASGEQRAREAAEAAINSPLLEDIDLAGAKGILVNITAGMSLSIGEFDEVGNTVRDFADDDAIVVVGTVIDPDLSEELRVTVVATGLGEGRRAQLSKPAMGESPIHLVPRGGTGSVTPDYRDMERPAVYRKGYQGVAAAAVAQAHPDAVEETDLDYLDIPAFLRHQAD


What was measured:
FtsZ^EC = biological target: T1, FtsZ^EC; assay: GTPase assay (phosphate release); assay type: biochemical; details: comparison with FtsZ^TO; conditions in supplement
FtsZ^TO = biological target: T2, FtsZ^TO; assay: Malachite green phosphate release GTPase assay; assay type: biochemical; details: 1 mM GTP, HEPES buffer pH 7.5 or MES buffer pH 6.5, 50 mM KCl, 5 mM MgCl2, 28 °C; T7 loop mutant
[1] = substrate: Nc1nc2c(ncn2[C@@H]2O[C@H](COP(=O)(O)OP(=O)(O)OP(=O)(O)O)[C@@H](O)[C@H]2O)c(=O)[nH]1; assay: Malachite green phosphate release GTPase assay, Michaelis-Menten fit; assay type: biochemical, Candidatus Thiosymbion oneisti; details: MES buffer pH 6.5, 50 mM KCl, 5 mM MgCl2, 28 °C, 5 μM FtsZ
Text: Malachite green phosphate release GTPase assay, Michaelis-Menten fit on FtsZ^TO

Molecule | GTPase assay (phosphate release) (FtsZ^EC) | Malachite green phosphate release GTPase assay (FtsZ^TO) | Km [1] [µM] | kcat [1] [s⁻¹]
Nc1nc2c(ncn2[C@@H]2O[C@H](COP(=O)(O)OP(=O)(O)OP(=O)(O)O)[C@@H](O)[C@H]2O)c(=O)[nH]1 [GTP] | FtsZ^TO showed a low GTPase activity compared to FtsZ^EC (Figure S4a) | Mutations I207M of the T7 loop and I273E of the H10 helix mutations reduced the GTPase | – | –
FtsZ^TO (Candidatus Thiosymbion oneisti) (protein, untagged, expressed from pJW17 (pET11b) in E. coli BL21(DE3) pLysS; anion-exchange purified) MFELVDTNGQDAVIKVIGVGGGGGNAVNQMVESSIEGVDFICANTDSQALKSSNVKTILQLGADITKGLGAGADPKVGKEAALEDKERIHDALEGADMVFITAGMGGGTGTGAAPVVAQVARELGILTVAVVTKPFAFEGAKRMKVAVEGISELASHVDSLITIPNEKLLAVLGKEMSLLNSFKAANDVLLNATQGIAELITRPGLINVDFADVKTVMAEMGQAMMGTGIASGEQRAREAAEAAINSPLLEDIDLAGAKGILVNITAGMSLSIGEFDEVGNTVRDFADDDAIVVVGTVIDPDLSEELRVTVVATGLGEGRRAQLSKPAMGESPIHLVPRGGTGSVTPDYRDMERPAVYRKGYQGVAAAAVAQAHPDAVEETDLDYLDIPAFLRHQAD | – | – | 550 ± 110 | 0.00817 ± 0.000833
